{
  "source": "patent US6358885B1",
  "about": "“Substituted phenylheterocyclic herbicides” (Mississippi State University, priority 1992, dated 2002)",
  "key": {"[1]": {"tested_on": "rape", "test": "Test B preemergence/postemergence greenhouse plant response rating 0 to 10", "assay_type": "in vivo, Brassica napus", "conditions": "0 to 10 scale", "summary_of_the_method": "(§1)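 Postemergence treatment of plants two to eighteen cm tall ran alongside preemergence treatment of planted seed, each using compound in a non-phytotoxic solvent.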"}, "[2]": {"tested_on": "giant foxtail", "test": "Test C preemergence/postemergence greenhouse plant response rating 0 to 100", "assay_type": "in vivo, Setaria faberii", "conditions": "POSTEMERGENCE", "summary_of_the_method": "(§2)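 Compounds in non-phytotoxic solvent applied preemergence to sandy loam one day after planting, postemergence at the 1–4 leaf stage, or to ~2.5 cm floodwater over silt loam.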"}, "[3]": {"tested_on": "rice", "test": "Test C flood test plant response rating 0 to 100", "assay_type": "in vivo, Oryza sativa", "summary_of_the_method": "as §2"}, "[4]": {"tested_on": "giant foxtail", "test": "Test B preemergence/postemergence greenhouse plant response rating 0 to 10", "assay_type": "in vivo, Setaria faberii", "conditions": "0 to 10 scale", "summary_of_the_method": "as §1"}, "[5]": {"tested_on": "downy brome", "test": "Test C preemergence/postemergence greenhouse plant response rating 0 to 100", "assay_type": "in vivo, Bromus tectorum", "conditions": "POSTEMERGENCE", "summary_of_the_method": "as §2"}, "[6]": {"tested_on": "wheat", "test": "Test B preemergence/postemergence greenhouse plant response rating 0 to 10", "assay_type": "in vivo, Triticum aestivum", "conditions": "0 to 10 scale", "summary_of_the_method": "as §1"}, "[7]": {"tested_on": "corn", "test": "Test B preemergence/postemergence greenhouse plant response rating 0 to 10", "assay_type": "in vivo, Zea mays", "conditions": "0 to 10 scale", "summary_of_the_method": "as §1"}, "[8]": {"tested_on": "barley", "test": "Test B preemergence/postemergence greenhouse plant response rating 0 to 10", "assay_type": "in vivo, Hordeum vulgare", "conditions": "0 to 10 scale", "summary_of_the_method": "as §1"}, "[9]": {"tested_on": "sorghum", "test": "Test B preemergence/postemergence greenhouse plant response rating 0 to 10", "assay_type": "in vivo, Sorghum bicolor", "conditions": "0 to 10 scale", "summary_of_the_method": "as §1"}, "[10]": {"tested_on": "barnyardgrass", "test": "Test B preemergence/postemergence greenhouse plant response rating 0 to 10", "assay_type": "in vivo, Echinochloa crus-galli", "conditions": "0 to 10 scale", "summary_of_the_method": "as §1"}, "[11]": {"tested_on": "chickweed", "test": "Test C preemergence/postemergence greenhouse plant response rating 0 to 100", "assay_type": "in vivo, Stellaria media", "conditions": "POSTEMERGENCE", "summary_of_the_method": "as §2"}, "[12]": {"tested_on": "crabgrass", "test": "Test B preemergence/postemergence greenhouse plant response rating 0 to 10", "assay_type": "in vivo, Digitaria spp.", "conditions": "0 to 10 scale", "summary_of_the_method": "as §1"}, "[13]": {"tested_on": "crabgrass", "test": "Test C preemergence/postemergence greenhouse plant response rating 0 to 100", "assay_type": "in vivo, Digitaria sanguinalis", "conditions": "POSTEMERGENCE", "summary_of_the_method": "as §2"}, "[14]": {"tested_on": "wild oat", "test": "Test C preemergence/postemergence greenhouse plant response rating 0 to 100", "assay_type": "in vivo, Avena fatua", "conditions": "POSTEMERGENCE", "summary_of_the_method": "as §2"}, "[15]": {"tested_on": "duck salad", "test": "Test C flood test plant response rating 0 to 100", "assay_type": "in vivo, Heteranthera limosa", "summary_of_the_method": "as §2"}, "[16]": {"tested_on": "wild buckwheat", "test": "Test C preemergence/postemergence greenhouse plant response rating 0 to 100", "assay_type": "in vivo, Polygonum convolvulus", "conditions": "POSTEMERGENCE", "summary_of_the_method": "as §2"}, "[17]": {"tested_on": "bedstraw", "test": "Test C preemergence/postemergence greenhouse plant response rating 0 to 100", "assay_type": "in vivo, Galium aparine", "conditions": "POSTEMERGENCE", "summary_of_the_method": "as §2"}, "[18]": {"tested_on": "chickweed", "test": "Test B preemergence/postemergence greenhouse plant response rating 0 to 10", "assay_type": "in vivo, Stellaria media", "conditions": "POSTEMERGENCE, 0 to 10 scale", "summary_of_the_method": "as §1"}, "[19]": {"conditions": "POSTEMERGENCE section, flood test, Rate 1 g/ha"}, "[20]": {"conditions": "POSTEMERGENCE section, flood test, Rate 4 g/ha"}, "[21]": {"conditions": "Rate 16 g/ha, under POSTEMERGENCE head (flood test species)"}, "[22]": {"conditions": "flood test species listed under POSTEMERGENCE, 62 g/ha, 0 to 100 scale"}},
  "data": [
    {"smiles": "C#CCN1C(=O)COc2cc(F)c(-c3nn4c(c3Cl)CCCC4)cc21", "note": "[Compound 34]", "values": [
      {"measurement": "Plant response rating, Rape", "setting": "[1]; POSTEMERGENCE, Rate 10 g/ha", "value": 10},
      {"measurement": "Plant response rating, Rape", "setting": "[1]; POSTEMERGENCE, Rate 50 g/ha", "value": 10},
      {"measurement": "Plant response rating, Rape", "setting": "[1]; PREEMERGENCE, Rate 50 g/ha", "value": 6},
      {"measurement": "Plant response rating, Giant foxtail", "setting": "[2]; 62 g/ha, 0 to 100 scale", "value": 70},
      {"measurement": "Plant response rating (0 to 100), Giant foxtail", "setting": "[2]; Rate 1 g/ha", "value": 20},
      {"measurement": "Plant response rating (0 to 100), Giant foxtail", "setting": "[2]; Rate 4 g/ha", "value": 30},
      {"measurement": "Plant response rating (0 to 100), Giant foxtail", "setting": "[2]; Rate 16 g/ha", "value": 40},
      {"measurement": "Plant response rating (0 to 100), Rice Japonica", "setting": "[3]; [19]", "value": 20},
      {"measurement": "Plant response rating (0 to 100), Rice Japonica", "setting": "[3]; [20]", "value": 25},
      {"measurement": "Plant response rating (0 to 100), Rice Japonica", "setting": "[3]; [21]", "value": 35},
      {"measurement": "Plant response rating Rice Japonica", "setting": "[3]; [22]", "value": 90},
      {"measurement": "Plant response rating, Giant foxtail", "setting": "[4]; POSTEMERGENCE, Rate 10 g/ha", "value": 4},
      {"measurement": "Plant response rating, Giant foxtail", "setting": "[4]; POSTEMERGENCE, Rate 50 g/ha", "value": 5},
      {"measurement": "Plant response rating, Giant foxtail", "setting": "[4]; PREEMERGENCE, Rate 10 g/ha", "value": 3},
      {"measurement": "Plant response rating, Giant foxtail", "setting": "[4]; PREEMERGENCE, Rate 50 g/ha", "value": 6},
      {"measurement": "Plant response rating Downy Brome", "setting": "[5]; 62 g/ha, 0 to 100 scale", "value": 50},
      {"measurement": "Plant response rating (0 to 100), Downy Brome", "setting": "[5]; Rate 1 g/ha", "value": 20},
      {"measurement": "Plant response rating (0 to 100), Downy Brome", "setting": "[5]; Rate 4 g/ha", "value": 30},
      {"measurement": "Plant response rating (0 to 100), Downy Brome", "setting": "[5]; Rate 16 g/ha", "value": 40},
      {"measurement": "Plant response rating, Wheat", "setting": "[6]; POSTEMERGENCE, Rate 10 g/ha", "value": 5},
      {"measurement": "Plant response rating, Wheat", "setting": "[6]; POSTEMERGENCE, Rate 50 g/ha", "value": 5},
      {"measurement": "Plant response rating, Wheat", "setting": "[6]; PREEMERGENCE, Rate 50 g/ha", "value": 3},
      {"measurement": "Plant response rating, Corn", "setting": "[7]; POSTEMERGENCE, Rate 10 g/ha", "value": 4},
      {"measurement": "Plant response rating, Corn", "setting": "[7]; POSTEMERGENCE, Rate 50 g/ha", "value": 4},
      {"measurement": "Plant response rating, Corn", "setting": "[7]; PREEMERGENCE, Rate 50 g/ha", "value": 0},
      {"measurement": "Plant response rating, Barley", "setting": "[8]; POSTEMERGENCE, Rate 10 g/ha", "value": 4},
      {"measurement": "Plant response rating, Barley", "setting": "[8]; POSTEMERGENCE, Rate 50 g/ha", "value": 4},
      {"measurement": "Plant response rating, Barley", "setting": "[8]; PREEMERGENCE, Rate 10 g/ha", "value": 0},
      {"measurement": "Plant response rating, Barley", "setting": "[8]; PREEMERGENCE, Rate 50 g/ha", "value": 2},
      {"measurement": "Plant response rating, Sorghum", "setting": "[9]; POSTEMERGENCE, Rate 10 g/ha", "value": 4},
      {"measurement": "Plant response rating, Sorghum", "setting": "[9]; POSTEMERGENCE, Rate 50 g/ha", "value": 6},
      {"measurement": "Plant response rating, Sorghum", "setting": "[9]; PREEMERGENCE, Rate 50 g/ha", "value": 2},
      {"measurement": "Plant response rating, Barnyardgrass", "setting": "[10]; POSTEMERGENCE, Rate 10 g/ha", "value": 4},
      {"measurement": "Plant response rating, Barnyardgrass", "setting": "[10]; POSTEMERGENCE, Rate 50 g/ha", "value": 5},
      {"measurement": "Plant response rating, Barnyardgrass", "setting": "[10]; PREEMERGENCE, Rate 10 g/ha", "value": 3},
      {"measurement": "Plant response rating, Barnyardgrass", "setting": "[10]; PREEMERGENCE, Rate 50 g/ha", "value": 4},
      {"measurement": "Plant response rating, Chickweed", "setting": "[11]; 62 g/ha, 0 to 100 scale", "value": 100},
      {"measurement": "Plant response rating (0 to 100), Chickweed", "setting": "[11]; Rate 1 g/ha", "value": 75},
      {"measurement": "Plant response rating (0 to 100), Chickweed", "setting": "[11]; Rate 4 g/ha", "value": 75},
      {"measurement": "Plant response rating (0 to 100), Chickweed", "setting": "[11]; Rate 16 g/ha", "value": 100},
      {"measurement": "Plant response rating, Crabgrass", "setting": "[12]; POSTEMERGENCE, Rate 10 g/ha", "value": 3},
      {"measurement": "Plant response rating, Crabgrass", "setting": "[12]; POSTEMERGENCE, Rate 50 g/ha", "value": 4},
      {"measurement": "Plant response rating, Crabgrass", "setting": "[12]; PREEMERGENCE, Rate 10 g/ha", "value": 3},
      {"measurement": "Plant response rating, Crabgrass", "setting": "[12]; PREEMERGENCE, Rate 50 g/ha", "value": 9},
      {"measurement": "Plant response rating, Crabgrass", "setting": "[13]; 62 g/ha, 0 to 100 scale", "value": 60},
      {"measurement": "Plant response rating (0 to 100), Crabgrass", "setting": "[13]; Rate 1 g/ha", "value": 10},
      {"measurement": "Plant response rating (0 to 100), Crabgrass", "setting": "[13]; Rate 4 g/ha", "value": 20},
      {"measurement": "Plant response rating (0 to 100), Crabgrass", "setting": "[13]; Rate 16 g/ha", "value": 30},
      {"measurement": "Plant response rating, Wild oat", "setting": "[14]; 62 g/ha, 0 to 100 scale", "value": 30},
      {"measurement": "Plant response rating (0 to 100), Wild oat", "setting": "[14]; Rate 1 g/ha", "value": 10},
      {"measurement": "Plant response rating (0 to 100), Wild oat", "setting": "[14]; Rate 4 g/ha", "value": 20},
      {"measurement": "Plant response rating (0 to 100), Wild oat", "setting": "[14]; Rate 16 g/ha", "value": 20},
      {"measurement": "Plant response rating (0 to 100), Duck salad", "setting": "[15]; [19]", "value": 0},
      {"measurement": "Plant response rating (0 to 100), Duck salad", "setting": "[15]; [20]", "value": 0},
      {"measurement": "Plant response rating (0 to 100), Duck salad", "setting": "[15]; [21]", "value": 0},
      {"measurement": "Plant response rating Duck salad", "setting": "[15]; [22]", "value": 40},
      {"measurement": "Plant response rating, Wild buckwheat", "setting": "[16]; 62 g/ha, 0 to 100 scale", "value": 100},
      {"measurement": "Plant response rating (0 to 100), Wild buckwheat", "setting": "[16]; Rate 4 g/ha", "value": 50},
      {"measurement": "Plant response rating (0 to 100), Wild buckwheat", "setting": "[16]; Rate 16 g/ha", "value": 100},
      {"measurement": "Plant response rating, Bedstraw", "setting": "[17]; 62 g/ha, 0 to 100 scale", "value": 100},
      {"measurement": "Plant response rating (0 to 100), Bedstraw", "setting": "[17]; Rate 1 g/ha", "value": 30},
      {"measurement": "Plant response rating (0 to 100), Bedstraw", "setting": "[17]; Rate 4 g/ha", "value": 95},
      {"measurement": "Plant response rating (0 to 100), Bedstraw", "setting": "[17]; Rate 16 g/ha", "value": 100},
      {"measurement": "Plant response rating, Chickweed", "setting": "[18]; Rate 10 g/ha", "value": 10},
      {"measurement": "Plant response rating, Chickweed", "setting": "[18]; Rate 50 g/ha", "value": 10}
    ]}
  ]
}
